# Test results: article PMC11111408, “Concurrent inhibition of oncogenic and wild-type RAS-GTP for cancer therapy” (Nature, 2024)
# Read-outs that look alike come from different tables or passages of the source.
# System: panel of 183 cancer cell lines
# Test: Cell panel of 183 cancer cell lines, viability (CTG) at Crown Bioscience
# Format: cell-based
# Details: Homo sapiens
# Excerpt: The panel consisted of cell lines with any substitution at position 12 of KRAS, NRAS or HRAS (KRAS(G12X), NRAS(G12X), HRAS(G12X)); substitutions in KRAS, NRAS or HRAS at any position other than 12, 13 and 61 (KRAS(other/VUS), NRAS(other/VUS), HRAS(other/VUS)); other oncogenic mutations in the RAS pathway (ABL1, ALK, ARAF, BRAF, CBL, EGFR, ERBB2, ERBB3, ERBB4, ERRFI1, FGFR1, FGFR2, FGFR3, FGFR4, FLT3, HRAS, IGF1R, JAK2, KIT, MAP2K1, MAP2K2, MAPK1, MET, NF1, NRAS, NTRK1, NTRK2, NTRK3, PDGFRA, PTPN11, RAC1, RAF1, RASA1, RET, RIT1, ROS1 and SOS1); and no oncogenic mutations in the RAS pathway. […] Cells were incubated for 120 h, and cell viability was determined using the CellTiter-Glo Luminescent Cell Viability Assay (CTG) (Promega, G7572) according to the manufacturer’s instructions.
structure (smiles),measurement,setting,value
CCn1c(-c2cc(N3CCN(C4CC4)CC3)cnc2[C@H](C)OC)c2c3cc(ccc31)-c1csc(n1)C[C@H](NC(=O)[C@H]1[C@@H]3COC[C@@H]31)C(=O)N1CCC[C@H](N1)C(=O)OCC(C)(C)C2 [RMC-7977],EC50,"read-out: RMC-7977 EC50 (M), HEP3B217, RAS pathway WT, Liver",9.36e-09 M
same,EC50,"read-out: RMC-7977 EC50 (M), HM7, KRAS G12D, Large intestine/Colorectum",1.86e-08 M
same,EC50,"read-out: RMC-7977 EC50 (M), HS852T, NRAS G12V, Skin",4.07e-08 M
same,EC50,"read-out: RMC-7977 EC50 (M), HUH28, PTPN11 mut, Liver/Bile duct",3.91e-08 M
same,EC50,"read-out: RMC-7977 EC50 (M), KG1, FGFR fusion, Blood/leukemia",9.16e-09 M
same,EC50,"read-out: RMC-7977 EC50 (M), L82, ALK fusion, Blood/lymphoma",2e-08 M
same,EC50,"read-out: RMC-7977 EC50 (M), NOZ, KRAS G12V, Liver/Bile duct",4.17e-09 M
same,EC50,"read-out: RMC-7977 EC50 (M), OZ, KRAS Q61L, Liver/Bile duct",3.55e-09 M
same,EC50,"read-out: RMC-7977 EC50 (M), PC9, EGFR mut, Lung",1.56e-08 M
same,EC50,"read-out: RMC-7977 EC50 (M), RBE, KRAS G12V, Liver/Bile duct",3.39e-10 M
same,EC50,"read-out: RMC-7977 EC50 (M), RKO, BRAF V600E, Large intestine/Colorectum",> 1e-06 M
same,EC50,"read-out: RMC-7977 EC50 (M), RT4, FGFR fusion, Bladder",1.32e-08 M
same,EC50,"read-out: RMC-7977 EC50 (M), SCH, RAS pathway WT, Stomach",> 1e-06 M
same,EC50,"read-out: RMC-7977 EC50 (M), SNU719, NRAS Q61L, Stomach",6.76e-09 M
same,EC50,"read-out: RMC-7977 EC50 (M), SNU2535, ALK fusion, Lung",6.42e-09 M
same,EC50,"read-out: RMC-7977 EC50 (M), SNUC2A, KRAS G12D, Large intestine/Colorectum",2.45e-09 M
same,EC50,"read-out: RMC-7977 EC50 (M), SR, ALK fusion, Thymus",1.41e-08 M
same,EC50,"read-out: RMC-7977 EC50 (M), T24, HRAS G12V, Bladder",1.2e-09 M
same,EC50,"read-out: RMC-7977 EC50 (M), T84, KRAS G13D, Large intestine/Colorectum",5.62e-08 M
same,EC50,"read-out: RMC-7977 EC50 (M), TE441T, RAS pathway WT, Muscle",> 1e-06 M
same,EC50,"read-out: RMC-7977 EC50 (M), TJ905, NF1 LOF, Brain&Nerves",1.06e-07 M
same,EC50,"read-out: RMC-7977 EC50 (M), YCC2, KRAS G12S, Stomach",2.19e-09 M
same,EC50,"read-out: RMC-7977 EC50 (median), median over ALK fusion cell lines",1.41e-08 M
same,EC50,"read-out: RMC-7977 EC50 (median), median over BRAF V600E cell lines",> 1e-06 M
same,EC50,"read-out: RMC-7977 EC50 (median), median over BRAF mut other cell lines",7.54e-08 M
same,EC50,"read-out: RMC-7977 EC50 (median), median over EGFR mut cell lines",4.52e-09 M
same,EC50,"read-out: RMC-7977 EC50 (median), median over ERBB3 mut cell lines",5.92e-09 M
same,EC50,"read-out: RMC-7977 EC50 (median), median over FGFR fusion cell lines",7.08e-09 M
same,EC50,"read-out: RMC-7977 EC50 (median), median over HRAS G12D cell lines",8.45e-09 M
same,EC50,"read-out: RMC-7977 EC50 (median), median over HRAS G12V cell lines",1.2e-09 M
same,EC50,"read-out: RMC-7977 EC50 (median), median over HRAS G161R cell lines",> 1e-06 M
same,EC50,"read-out: RMC-7977 EC50 (median), median over HRAS L133R cell lines",1.23e-08 M
same,EC50,"read-out: RMC-7977 EC50 (median), median over HRAS Q61H cell lines",4.57e-09 M
same,EC50,"read-out: RMC-7977 EC50 (median), median over HRAS Q61L cell lines",1.62e-08 M
same,EC50,"read-out: RMC-7977 EC50 (median), median over KRAS A59T cell lines",1.02e-09 M
same,EC50,"read-out: RMC-7977 EC50 (median), median over KRAS G12A cell lines",1.2e-08 M
same,EC50,"read-out: RMC-7977 EC50 (median), median over KRAS G12C cell lines",1.84e-09 M
same,EC50,"read-out: RMC-7977 EC50 (median), median over KRAS G12D cell lines",2.86e-09 M
same,EC50,"read-out: RMC-7977 EC50 (median), median over KRAS G12R cell lines",2.76e-09 M
same,EC50,"read-out: RMC-7977 EC50 (median), median over KRAS G12S cell lines",3.21e-09 M
same,EC50,"read-out: RMC-7977 EC50 (median), median over KRAS G12V cell lines",1.15e-09 M
same,EC50,"read-out: RMC-7977 EC50 (median), median over KRAS G13C cell lines",1.41e-08 M
same,EC50,"read-out: RMC-7977 EC50 (median), median over KRAS G13D cell lines",3.16e-08 M
same,EC50,"read-out: RMC-7977 EC50 (median), median over KRAS P121H cell lines",> 1e-06 M
same,EC50,"read-out: RMC-7977 EC50 (median), median over KRAS Q61H cell lines",> 1e-06 M
same,EC50,"read-out: RMC-7977 EC50 (median), median over KRAS Q61K cell lines",3.22e-09 M
same,EC50,"read-out: RMC-7977 EC50 (median), median over KRAS Q61L cell lines",9e-09 M
same,EC50,"read-out: RMC-7977 EC50 (median), median over KRAS R97I cell lines",2.75e-09 M
same,EC50,"read-out: RMC-7977 EC50 (median), median over MET amp cell lines",4.57e-09 M
same,EC50,"read-out: RMC-7977 EC50 (median), median over NF1 LOF cell lines",3.25e-08 M
same,EC50,"read-out: RMC-7977 EC50 (median), median over NRAS G12V cell lines",4.07e-08 M
same,EC50,"read-out: RMC-7977 EC50 (median), median over NRAS Q61K cell lines",1.91e-09 M
same,EC50,"read-out: RMC-7977 EC50 (median), median over NRAS Q61L cell lines",6.76e-09 M
same,EC50,"read-out: RMC-7977 EC50 (median), median over NRAS Q61R cell lines",9.12e-09 M
same,EC50,"read-out: RMC-7977 EC50 (median), median over NRAS Y137H cell lines",2.88e-08 M
same,EC50,"read-out: RMC-7977 EC50 (median), median over NTRK1 fusion cell lines",5.14e-09 M
same,EC50,"read-out: RMC-7977 EC50 (median), median over PTPN11 mut cell lines",7.95e-09 M
same,EC50,"read-out: RMC-7977 EC50 (median), median over RAS pathway WT cell lines",1e-07 M
same,EC50,"read-out: RMC-7977 EC50 (median), median over RET fusion cell lines",5.15e-09 M
same,EC50,"read-out: RMC-7977 EC50 (median), median over ROS1 fusion cell lines",7.49e-09 M
